These results are taken from PubChem BioAssay (NCI).

Test systems include HOP-62 NSCLC; 786-0 renal; RPMI-8226 leukemia; HCT-15 colon; HT29 colon; NCI-H522 lung; K-562 leukemia.
Holding throughout (experiment): NCI tumour cell line growth inhibition, 48 h

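Test compounds were applied to cells in 96-well plates for 48 hours at 5 doses. The concentration for 50% growth inhibition is given as GI50. TGI denotes the concentration required for complete inhibition of growth.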

`CN(C)C(=O)Oc1c(-c2ccccc2)c(=O)n2c3ccccc3n3c(=O)n(C)c(=O)c1c23`: the TGI in the test with HOP-62 NSCLC, in the test on 786-0 renal, in the test with RPMI-8226 leukemia, in the test with HCT-15 colon and in the test on HT29 colon was over 100 µM throughout.

For the compound `COC(=O)c1nn(C(=N)c2ccc(Cl)cc2)c2c1CCC2`, the TGI with HOP-62 NSCLC, in the test on 786-0 renal, in the test with RPMI-8226 leukemia, in the test with NCI-H522 lung, in the test on HCT-15 colon and with K-562 leukemia was over 100 µM in each case. Further, the TGI with HT29 colon is over 100 µM.

On to `O=[N+]([O-])c1ccc(C=NC23CC4CC(CC(C4)C2)C3)cc1`, for which the TGI in the test on HOP-62 NSCLC, in the test with 786-0 renal, with RPMI-8226 leukemia, in the test with NCI-H522 lung, in the test with HCT-15 colon and with K-562 leukemia was over 100 µM in each case. The compound further displayed a TGI in the test with HT29 colon of over 100 µM.

For the compound `Cc1ccc(C(=O)CC2=Nc3nnc(CCCCCCCc4nnc5n4C(=O)C(CC(=O)c4ccc(C)cc4)=N5)n3C2=O)cc1`, the TGI with HOP-62 NSCLC, in the test on 786-0 renal, in the test on RPMI-8226 leukemia, in the test on NCI-H522 lung, in the test with HCT-15 colon and with K-562 leukemia was over 100 µM in each case. This compound registered a TGI in the test on HT29 colon of over 100 µM.

With `O=C(CCC(=O)C1CCC/C1=N/O)Nc1ccc(Cl)cc1` (centres undefined), the TGI in the test on HOP-62 NSCLC, with 786-0 renal, with RPMI-8226 leukemia, in the test with NCI-H522 lung, with HCT-15 colon and with K-562 leukemia was over 100 µM throughout. Moreover, the TGI with HT29 colon is over 100 µM.

With `Cc1cccc2c(O)cc(=O)oc12`, the TGI with HOP-62 NSCLC, in the test with 786-0 renal, in the test on RPMI-8226 leukemia, in the test with K-562 leukemia and in the test with HT29 colon was over 100 µM throughout.

Turning to `O=NN(CCCl)C(=O)NC1CCC(CC2CCC(NC(=O)N(CCCl)N=O)CC2)CC1` (centres undefined), the TGI with HOP-62 NSCLC was 82.3 µM; with 786-0 renal, 69.9 µM; with RPMI-8226 leukemia it was over 77.8 µM; in the test with NCI-H522 lung it was 48.3 µM; in the test with HCT-15 colon, over 76.9 µM; in the test with K-562 leukemia it was over 100 µM. Also, the TGI with HT29 colon is over 100 µM.

As for `O=C1/C(=C/c2ccc(Br)cc2)CCC/C1=C\c1ccc(Br)cc1`, the TGI with HOP-62 NSCLC was found to be 53.3 µM; with 786-0 renal it was 33.8 µM; with RPMI-8226 leukemia, 5.26 µM; in the test with NCI-H522 lung, 39.2 µM; in the test with HCT-15 colon, 31.1 µM; in the test on K-562 leukemia it was 21.2 µM. This compound had a TGI in the test on HT29 colon of 4.27 µM.

On to `NNC(=O)C(=O)N/N=C(\CCC(=O)Nc1ccc(Cl)cc1)Cc1nc2ccccc2s1`, for which the TGI was over 100 µM in the test on HOP-62 NSCLC; over 100 µM in the test with 786-0 renal; over 100 µM in the test with RPMI-8226 leukemia; 40.8 µM with NCI-H522 lung; over 100 µM with HCT-15 colon; over 100 µM in the test with K-562 leukemia. In the test on HT29 colon, the TGI was over 100 µM.

In the case of `Cn1c(=O)c2/c(n(C)c1=O)=N\C=c1\c(=O)n(C)c(=O)n(C)\c1=N\C=2`, the TGI in the test with HOP-62 NSCLC, in the test on 786-0 renal, with NCI-H522 lung, in the test with HCT-15 colon, in the test with K-562 leukemia and in the test with HT29 colon was over 100 µM throughout.

In the case of `OCCN1CCN(CC/C=C2/c3ccccc3Sc3ccc(Cl)cc32)CC1`, the TGI turned out to be 29.7 µM in the test with HOP-62 NSCLC; 26.7 µM in the test on 786-0 renal; 31.2 µM in the test on RPMI-8226 leukemia; 30.1 µM with NCI-H522 lung; 26.2 µM in the test on HCT-15 colon; 8.65 µM in the test on K-562 leukemia. The same compound registered a TGI in the test on HT29 colon of 6.9 µM. Also, the GI50 in the test on 786-0 renal was 13.2 µM.

As for `N.N.O=P([O-])([O-])C1(P(=O)([O-])[O-])CCCCCN1.[Pt+2]`, the GI50 in the test on HOP-62 NSCLC, in the test on 786-0 renal, in the test on RPMI-8226 leukemia, with NCI-H522 lung, with HCT-15 colon and in the test with K-562 leukemia was over 100 µM throughout. For the same compound, the GI50 in the test on HT29 colon is over 100 µM. Moreover, the TGI in the test on HOP-62 NSCLC, with 786-0 renal, in the test with RPMI-8226 leukemia, in the test on NCI-H522 lung, with HCT-15 colon and with K-562 leukemia was over 100 µM in each case. Besides, in the test with HT29 colon, the TGI is over 100 µM.

Consider `CCC[CH2][Sn]1([CH2]CCC)[O]CC(C)[O]1` (centres undefined), for which the GI50 is 2.63 µM with HOP-62 NSCLC; 1.48 µM with 786-0 renal; 0.309 µM with RPMI-8226 leukemia; 0.306 µM with NCI-H522 lung; 1.1 µM in the test on HCT-15 colon; 0.367 µM in the test on K-562 leukemia. In the test on HT29 colon, the GI50 is 1.74 µM. Moreover, the TGI with HOP-62 NSCLC was determined as 6.62 µM; in the test on 786-0 renal, 2.84 µM; in the test with RPMI-8226 leukemia, 2.07 µM; in the test on NCI-H522 lung, 1.07 µM; in the test with HCT-15 colon it was 2.35 µM; with K-562 leukemia, 1.97 µM. The same compound yielded a TGI in the test with HT29 colon of 3.44 µM.

Turning to `CC(=O)[O-].O=C([CH-]C(=O)c1ccccc1)c1ccccc1.O=C([CH-]C(=O)c1ccccc1)c1ccccc1.[Sm+3]`, the GI50 was 1.96 µM with HOP-62 NSCLC; 3.2 µM with 786-0 renal; 5.57 µM with RPMI-8226 leukemia; 1.43 µM in the test on NCI-H522 lung; 5.5 µM in the test with HCT-15 colon; 3.68 µM in the test with K-562 leukemia. In addition, the GI50 with HT29 colon is 6.59 µM. Also, the TGI in the test on HOP-62 NSCLC is 9.04 µM; with 786-0 renal, 16.3 µM; in the test on RPMI-8226 leukemia, 33.8 µM; in the test on NCI-H522 lung it was 7.49 µM; with HCT-15 colon, 22.5 µM; with K-562 leukemia, 27.4 µM. In addition, the TGI with HT29 colon was found to be 19 µM.

With `C[C@]12CCC(=O)C=C1CC[C@@H]1C2CC[C@]2(C)c3nn(-c4ccccc4)nc3CC12` (some centres undefined), the TGI with HOP-62 NSCLC, in the test with 786-0 renal, in the test on RPMI-8226 leukemia, in the test on HCT-15 colon, in the test on K-562 leukemia and in the test on HT29 colon was over 100 µM throughout.

`CC(=O)[CH-]C(C)=O.CC(=O)[CH-]C(C)=O.CC[O-].CC[O-].[Ti+4]`: the GI50 in the test on HOP-62 NSCLC, with 786-0 renal, in the test on RPMI-8226 leukemia, with NCI-H522 lung, in the test with HCT-15 colon and in the test with K-562 leukemia was over 100 µM throughout. In addition, the GI50 in the test with HT29 colon was over 100 µM. Besides, the TGI in the test with HOP-62 NSCLC, in the test on 786-0 renal, with RPMI-8226 leukemia, in the test with NCI-H522 lung, in the test on HCT-15 colon and in the test on K-562 leukemia was over 100 µM throughout. In the test with HT29 colon, the TGI was over 100 µM.

For `CCc1cccc(C)c1NC(=O)CC1C(=O)Nc2ccccc2S1(=O)=O` (centres undefined), the TGI in the test on 786-0 renal was 31.5 µM; in the test on RPMI-8226 leukemia, 40.4 µM; in the test on NCI-H522 lung, 32.5 µM; with HCT-15 colon it was 33.8 µM; with K-562 leukemia it was 14.7 µM; in the test with HT29 colon, 36.4 µM.

On to `CC(=O)N/C(=C\c1ccc(Cc2nc3c([nH]2)C(=O)c2ccccc2C3=O)cc1)c1nc2c([nH]1)C(=O)c1ccccc1C2=O`, for which the TGI in the test on HOP-62 NSCLC, with 786-0 renal, in the test on RPMI-8226 leukemia, in the test on NCI-H522 lung, in the test on K-562 leukemia and with HT29 colon was over 100 µM throughout.

For `O=C(/C=C\c1cccc2ccccc12)c1cccc2ccccc12`, the TGI was 39.7 µM in the test with HOP-62 NSCLC; 17.4 µM in the test on 786-0 renal; over 100 µM in the test with RPMI-8226 leukemia; 16.1 µM with NCI-H522 lung; 19.6 µM with HCT-15 colon; 18.6 µM in the test on K-562 leukemia. Besides, the GI50 with RPMI-8226 leukemia is 2.68 µM; in the test with NCI-H522 lung, 4.46 µM; with K-562 leukemia, 2.82 µM; in the test on HT29 colon it was 4.47 µM.

For the compound `CCN(CC)CC(=N)N(CC)c1ccccc1`, the TGI with HOP-62 NSCLC, in the test with 786-0 renal, in the test with RPMI-8226 leukemia, in the test on NCI-H522 lung, with HCT-15 colon and with K-562 leukemia was over 100 µM each time.

For the compound `Cn1cccc1/C=C/c1cc(Br)c(/C=C/c2cccn2C)cc1Br`, the TGI amounted to 20.2 µM in the test on 786-0 renal; 41.3 µM with RPMI-8226 leukemia; 28.3 µM in the test with NCI-H522 lung; 24.6 µM with HCT-15 colon; 43.9 µM in the test on K-562 leukemia; 41.5 µM with HT29 colon.

In the case of `O=C(CC/C(CC(=O)c1ccc(Br)cc1)=N\O)Nc1ccc(Cl)c(Cl)c1`, the TGI in the test with HOP-62 NSCLC was over 100 µM; in the test with 786-0 renal, over 100 µM; with RPMI-8226 leukemia, over 100 µM; in the test on NCI-H522 lung it was 53.5 µM; with HCT-15 colon, over 100 µM; with K-562 leukemia, over 100 µM. The compound also registered a TGI in the test on HT29 colon of over 100 µM.

For `CCN(CC)CCNC(=O)c1cccc2nc3ccccc3nc12`, the TGI is 33.8 µM with HOP-62 NSCLC; over 100 µM in the test on 786-0 renal; over 100 µM in the test on RPMI-8226 leukemia; over 100 µM in the test with NCI-H522 lung; 41.8 µM in the test with HCT-15 colon; over 100 µM in the test with K-562 leukemia. Further, the TGI in the test with HT29 colon came to 28.3 µM.

For the compound `CN(C)CC/C(=N\Nc1ccc(Cl)cc1Cl)c1ccccc1`, the TGI in the test with HOP-62 NSCLC was determined as 30.3 µM; with 786-0 renal, 27.5 µM; with RPMI-8226 leukemia, 17.1 µM; in the test on HCT-15 colon, 24.9 µM; with K-562 leukemia, 33.4 µM; in the test on HT29 colon it was 28.9 µM.
